Experimental findings from PubChem BioAssay AID489040 (Sanford-Burnham Center for Chemical Genomics, 2010) are described below.

The source made the active and inactive calls.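 How the source made its calls: active means mean half-maximal activating concentration from the dose-response fit at or below a set limit; inactive means the rest.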

The target of the test is CHO-XBP1 luciferase reporter, IRE1-XBP1 UPR activation. Kind of test: activators of IRE1-XBP1 UPR arm, dose response, counter-screen for apoptotic UPR arm activators, CHO-XBP1 cells, luminescence (AID 489040).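 Further: reporter read after six hours of compound exposure.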
Broadly, the EC50 is the concentration at which the effect is half-maximal. `Cc1ccccc1S(=O)(=O)NC1OC(=O)C(Cl)=C1Cl` (stereo not given): the EC50 was > 80 µM (inactive).
Then `O=C1C=CC(=O)C(C2=C3C(=O)N(CCc4ccccc4)CC(=O)N3CCC2)=C1`, with > 80 µM (inactive).
Then `CC1=NN(c2cccc(C(=O)O)c2)C(=O)/C1=C\C=C/c1ccccc1`, with > 80 µM (inactive).
Then `COc1cccc(N=Cc2c(O)c3ccccc3oc2=O)c1`, with > 80 µM (inactive); and `COc1ccc(-c2nc(-c3ccccc3)nc(Cl)c2C#N)cc1`, with “inactive”; and `Cn1c(/C=C/c2ccc([N+](=O)[O-])o2)nc2ccccc2c1=O`, with > 80 µM (inactive).
For the molecule `COc1cccc(N=Nc2ccc(O)c3ncccc23)c1`, the EC50 was > 80 µM (inactive).
Then `CCc1cc2c(=O)[nH]c(-c3ccccn3)nc2s1`, with > 80 µM (inactive); and `COc1cc([N+](=O)[O-])cc(/C=N/NC(=O)c2ccc(NC(=O)c3ccc(C)cc3)cc2)c1O`, with > 80 µM (inactive); and `Oc1c(C(c2ccccc2Cl)N2CCCC2)ccc2cccnc12` (stereo not given), with > 80 µM (inactive).
Turning to `COc1ccc(CC2=CC(=O)c3ccccc3C2=O)cc1`, the EC50 was > 80 µM (inactive).
Take `C=CCNC(=S)N/N=C(\C)c1ccccn1`: the EC50 is > 80 µM (inactive).
Then `CCOC(=O)C(CC)(CC)C(=O)/C=C/c1cccc(Br)c1`, with > 80 µM (inactive).
In the case of `C/C(=N\NC(=O)c1ccc(F)cc1)c1ccccn1`, the EC50 is > 80 µM (inactive).
Then `O=C(NCc1cccnc1)/C(=C/c1ccc(-c2ccc(Cl)cc2)o1)S(=O)(=O)c1ccccc1`, with > 80 µM (inactive).
